The values below come from paper PMC11604048, “Constrained TACC3 peptidomimetics for a non-canonical protein–protein interface elucidate allosteric communication in Aurora-A kinase” (Chemical Science, 2024).

Like-named read-outs stand apart in the source and are kept apart here. *1 amine or outer side, *2 acyl side, *3 side chain or, on linkers, in order; H or OH if unused. Where a SMILES comes first, the peptide text is derived from it. Bridges are numbered along the chain shown (N, C = ends). [ ]: non-standard residue; d: D form. Maleimide(3,4-diyl) = O=C1NC(=O)C([*:2])=C1[*:1]; Bpa = N[C@@H](Cc1ccc(C(=O)c2ccccc2)cc1)C(=O)O

In general, IC50 refers to the midpoint of a concentration-inhibition curve.

The target in the assay is T1, Aurora-A122-403-C290A/C393A (Homo sapiens, UniProt O14965, C290A/C393A).
T1 construct: Human Aurora-A kinase domain 122-403 wild-type or C290A/ C393A mutant; His tag (pET30TEV vector) (N, cleaved yes); made in house; host or cells: E. coli RIL, co-expressed with lambda phosphatase (Aurora-A); tracer by solid phase synthesis
T1 sequence (O14965 122-403 C290A/C393A): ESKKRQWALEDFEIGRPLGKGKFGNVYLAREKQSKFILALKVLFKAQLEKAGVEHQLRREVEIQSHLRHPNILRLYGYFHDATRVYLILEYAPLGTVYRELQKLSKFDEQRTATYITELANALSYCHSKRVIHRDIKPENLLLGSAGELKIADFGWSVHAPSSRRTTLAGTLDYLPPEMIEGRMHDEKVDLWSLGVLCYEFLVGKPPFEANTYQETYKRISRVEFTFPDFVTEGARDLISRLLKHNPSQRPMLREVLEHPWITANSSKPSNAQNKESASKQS
Kind of assay: Competition FA assay against FAM-Ahx-TACC3 522-536 tracer. The format is binding.

The mark [1] stands for this setting: as E1, free-sulfhydryl (reduced) species, DTT 5 mM in buffer, WT control (+DTT), mean ± SD, n = 3, read-out: IC50 (red).
Setting [2] is: as E1, oxidised (disulfide) species made in situ from 10 mM stock in aqueous DMSO 33% v/v, air, overnight, WT control (+DMSO) given the same DMSO incubation, mean ± SD, n = 3, read-out: IC50 (ox).

Regarding `CC(=O)N[C@@H](CCC(=O)O)C(=O)N[C@@H](CCC(=O)O)C(=O)N[C@@H](CO)C(=O)N[C@@H](Cc1ccccc1)C(=O)N[C@@H](CS)C(=O)N[C@@H](CC(=O)O)C(=O)N1CCC[C@H]1C(=O)N[C@@H](C)C(=O)N[C@@H](CCC(=O)O)C(=O)N[C@@H](CS)C(=O)N[C@@H](CC(C)C)C(=O)NCC(=O)N[C@H](C(=O)NCC(=O)N[C@@H](C)C(N)=O)[C@@H](C)O` [TACC3 522-536 R526C/V531C (red)] (Ac-EESFCDPAECLGTGA-NH2), under setting [1], the 50% inhibitory concentration (IC50) was ≥ 500 µM.

Take `CC(=O)N[C@@H](CCC(=O)O)C(=O)N[C@@H](CCC(=O)O)C(=O)N[C@H]1CSC2=C(SC[C@@H](C(=O)N3CCC[C@H]3C(=O)N[C@@H](C)C(=O)N[C@@H](CCC(=O)O)C(=O)N[C@H](C(=O)N[C@@H](CC(C)C)C(=O)NCC(=O)N[C@H](C(=O)NCC(=O)N[C@@H](C)C(N)=O)[C@@H](C)O)C(C)C)NC(=O)[C@H](CCCNC(=N)N)NC(=O)[C@H](Cc3ccccc3)NC1=O)C(=O)NC2=O` [TACC3 522-536 S524C/D527C (mal)] (Ac-EECFRCPAEVLGTGA-NH2; linker 3-6 via Maleimide(3,4-diyl) (inferred)): the IC50 (as E1, Table S3 (mal): maleimide-constrained species, WT value is an individual replica control assay, mean ± SD, n = 3, read-out: IC50 (mal)) was ≥ 500 µM.

Regarding `CC(=O)N[C@@H](CCC(=O)O)C(=O)N[C@@H](CCC(=O)O)C(=O)N[C@H]1CSSC[C@@H](C(=O)N2CCC[C@H]2C(=O)N[C@@H](C)C(=O)N[C@@H](CCC(=O)O)C(=O)N[C@H](C(=O)N[C@@H](CC(C)C)C(=O)NCC(=O)N[C@H](C(=O)NCC(=O)N[C@@H](C)C(N)=O)[C@@H](C)O)C(C)C)NC(=O)[C@H](CCCNC(=N)N)NC(=O)[C@H](Cc2ccccc2)NC1=O` [TACC3 522-536 S524C/D527C (ox)] (Ac-EECFRCPAEVLGTGA-NH2; disulfide 3-6), the half-maximal inhibitory concentration (IC50) under setting [2] was ≥ 500 µM.

For the compound `CC(=O)N[C@@H](CCC(=O)O)C(=O)N[C@@H](CCC(=O)O)C(=O)N[C@@H](CS)C(=O)N[C@@H](Cc1ccccc1)C(=O)N[C@@H](CCCNC(=N)N)C(=O)N[C@@H](CS)C(=O)N1CCC[C@H]1C(=O)N[C@@H](C)C(=O)N[C@@H](CCC(=O)O)C(=O)N[C@H](C(=O)N[C@@H](CC(C)C)C(=O)NCC(=O)N[C@H](C(=O)NCC(=O)N[C@@H](C)C(N)=O)[C@@H](C)O)C(C)C` [TACC3 522-536 S524C/D527C (red)] (Ac-EECFRCPAEVLGTGA-NH2), the IC50 (as E1, free-sulfhydryl (reduced) species, DTT 5 mM in buffer, WT control (+DTT), mean ± SD, n = 3, SD, read-out: IC50 (red)) was determined as 309 ± 38 µM.

On to `CC(=O)N[C@@H](CCC(=O)O)C(=O)N[C@@H](CCC(=O)O)C(=O)N[C@@H](CO)C(=O)N[C@@H](Cc1ccccc1)C(=O)N[C@@H](CCCNC(=N)N)C(=O)N[C@@H](CC(=O)O)C(=O)N1CCC[C@H]1C(=O)N[C@@H](C)C(=O)N[C@@H](CCC(=O)O)C(=O)N[C@H]1CSC2=C(SC[C@@H](C(=O)NCC(=O)N[C@@H](C)C(N)=O)NC(=O)CNC(=O)[C@H](CC(C)C)NC1=O)C(=O)NC2=O` [TACC3 522-536 V531C/T534C (mal)] (Ac-EESFRDPAECLGCGA-NH2; linker 10-13 via Maleimide(3,4-diyl)), for which the IC50 (as E1, Table S3 (mal): maleimide-constrained species, WT value is an individual replica control assay, mean ± SD, n = 3, SD, read-out: IC50 (mal)) is 412 ± 73 µM.

Take `CC(=O)N[C@@H](CCC(=O)O)C(=O)N[C@@H](CCC(=O)O)C(=O)N[C@@H](CO)C(=O)N[C@@H](Cc1ccccc1)C(=O)N[C@@H](CCCNC(=N)N)C(=O)N[C@@H](CC(=O)O)C(=O)N1CCC[C@H]1C(=O)N[C@@H](C)C(=O)N[C@@H](CCC(=O)O)C(=O)N[C@H]1CSSC[C@@H](C(=O)NCC(=O)N[C@@H](C)C(N)=O)NC(=O)CNC(=O)[C@H](CC(C)C)NC1=O` [TACC3 522-536 V531C/T534C (ox)] (Ac-EESFRDPAECLGCGA-NH2; disulfide 10-13): the 50% inhibitory concentration (IC50) under setting [2] is ≥ 500 µM.

Regarding `CC(=O)N[C@@H](CCC(=O)O)C(=O)N[C@@H](CCC(=O)O)C(=O)N[C@@H](CO)C(=O)N[C@@H](Cc1ccccc1)C(=O)N[C@@H](CCCNC(=N)N)C(=O)N[C@@H](CC(=O)O)C(=O)N1CCC[C@H]1C(=O)N[C@@H](C)C(=O)N[C@@H](CCC(=O)O)C(=O)N[C@@H](CS)C(=O)N[C@@H](CC(C)C)C(=O)NCC(=O)N[C@@H](CS)C(=O)NCC(=O)N[C@@H](C)C(N)=O` [TACC3 522-536 V531C/T534C (red)] (Ac-EESFRDPAECLGCGA-NH2), under setting [1], the half-maximal inhibitory concentration (IC50) is ≥ 500 µM.

Take `CC(=O)N[C@@H](CCC(=O)O)C(=O)N[C@@H](CCC(=O)O)C(=O)N[C@@H](CO)C(=O)N[C@@H](Cc1c(F)c(F)c(F)c(F)c1F)C(=O)N[C@@H](CCCNC(=N)N)C(=O)N[C@@H](CC(=O)O)C(=O)N1CCC[C@H]1C(=O)N[C@@H](C)C(=O)N[C@@H](CCC(=O)O)C(=O)N[C@H](C(=O)N[C@@H](CC(C)C)C(=O)NCC(=O)N[C@H](C(=O)NCC(=O)N[C@@H](C)C(N)=O)[C@@H](C)O)C(C)C` [TACC3 522-536_5f-525F]: the 50% inhibitory concentration (IC50) (SD, read-out: IC50) came to 97 ± 10 µM.

For `CC(=O)N[C@@H](CCC(=O)O)C(=O)N[C@@H](CCC(=O)O)C(=O)N[C@@H](CO)C(=O)N[C@@H](Cc1ccc(Br)cc1)C(=O)N[C@@H](CCCNC(=N)N)C(=O)N[C@@H](CC(=O)O)C(=O)N1CCC[C@H]1C(=O)N[C@@H](C)C(=O)N[C@@H](CCC(=O)O)C(=O)N[C@H](C(=O)N[C@@H](CC(C)C)C(=O)NCC(=O)N[C@H](C(=O)NCC(=O)N[C@@H](C)C(N)=O)[C@@H](C)O)C(C)C` [TACC3 522-536_(4-Br)525F], the half-maximal inhibitory concentration (IC50) (SD, read-out: IC50) amounted to 34 ± 6 µM.

Regarding `CC(=O)N[C@@H](CCC(=O)O)C(=O)N[C@@H](CCC(=O)O)C(=O)N[C@@H](CO)C(=O)N[C@@H](Cc1ccc(C(F)(F)F)cc1)C(=O)N[C@@H](CCCNC(=N)N)C(=O)N[C@@H](CC(=O)O)C(=O)N1CCC[C@H]1C(=O)N[C@@H](C)C(=O)N[C@@H](CCC(=O)O)C(=O)N[C@H](C(=O)N[C@@H](CC(C)C)C(=O)NCC(=O)N[C@H](C(=O)NCC(=O)N[C@@H](C)C(N)=O)[C@@H](C)O)C(C)C` [TACC3 522-536_(4-CF3)525F], the half-inhibitory concentration (IC50) (SD, read-out: IC50) was 170 ± 17 µM.

Take `CC(=O)N[C@@H](CCC(=O)O)C(=O)N[C@@H](CCC(=O)O)C(=O)N[C@@H](CO)C(=O)N[C@@H](Cc1ccc(C#N)cc1)C(=O)N[C@@H](CCCNC(=N)N)C(=O)N[C@@H](CC(=O)O)C(=O)N1CCC[C@H]1C(=O)N[C@@H](C)C(=O)N[C@@H](CCC(=O)O)C(=O)N[C@H](C(=O)N[C@@H](CC(C)C)C(=O)NCC(=O)N[C@H](C(=O)NCC(=O)N[C@@H](C)C(N)=O)[C@@H](C)O)C(C)C` [TACC3 522-536_(4-CN) -525F]: the IC50 (SD, read-out: IC50) amounted to 138 ± 8 µM.

Turning to `CC(=O)N[C@@H](CCC(=O)O)C(=O)N[C@@H](CCC(=O)O)C(=O)N[C@@H](CO)C(=O)N[C@@H](Cc1ccc(Cl)cc1)C(=O)N[C@@H](CCCNC(=N)N)C(=O)N[C@@H](CC(=O)O)C(=O)N1CCC[C@H]1C(=O)N[C@@H](C)C(=O)N[C@@H](CCC(=O)O)C(=O)N[C@H](C(=O)N[C@@H](CC(C)C)C(=O)NCC(=O)N[C@H](C(=O)NCC(=O)N[C@@H](C)C(N)=O)[C@@H](C)O)C(C)C` [TACC3 522-536_(4-Cl)525F], where the note is “SD, read-out: IC50”, the IC50 worked out at 46 ± 8 µM.

For the compound `CC(=O)N[C@@H](CCC(=O)O)C(=O)N[C@@H](CCC(=O)O)C(=O)N[C@@H](CO)C(=O)N[C@@H](Cc1ccc(F)cc1)C(=O)N[C@@H](CCCNC(=N)N)C(=O)N[C@@H](CC(=O)O)C(=O)N1CCC[C@H]1C(=O)N[C@@H](C)C(=O)N[C@@H](CCC(=O)O)C(=O)N[C@H](C(=O)N[C@@H](CC(C)C)C(=O)NCC(=O)N[C@H](C(=O)NCC(=O)N[C@@H](C)C(N)=O)[C@@H](C)O)C(C)C` [TACC3 522-536_(4-F)525F], the IC50 (SD, read-out: IC50) is 184 ± 22 µM.

Take `CC(=O)N[C@@H](CCC(=O)O)C(=O)N[C@@H](CCC(=O)O)C(=O)N[C@@H](CO)C(=O)N[C@@H](Cc1ccc(I)cc1)C(=O)N[C@@H](CCCNC(=N)N)C(=O)N[C@@H](CC(=O)O)C(=O)N1CCC[C@H]1C(=O)N[C@@H](C)C(=O)N[C@@H](CCC(=O)O)C(=O)N[C@H](C(=O)N[C@@H](CC(C)C)C(=O)NCC(=O)N[C@H](C(=O)NCC(=O)N[C@@H](C)C(N)=O)[C@@H](C)O)C(C)C` [TACC3 522-536_(4-I)525F]: the IC50 (SD, read-out: IC50) came to 34 ± 3 µM.

For `CC(=O)N[C@@H](CCC(=O)O)C(=O)N[C@@H](CCC(=O)O)C(=O)N[C@@H](CO)C(=O)N[C@@H](Cc1ccc(C(=O)c2ccccc2)cc1)C(=O)N[C@@H](CCCNC(=N)N)C(=O)N[C@@H](CC(=O)O)C(=O)N1CCC[C@H]1C(=O)N[C@@H](C)C(=O)N[C@@H](CCC(=O)O)C(=O)N[C@H](C(=O)N[C@@H](CC(C)C)C(=O)NCC(=O)N[C@H](C(=O)NCC(=O)N[C@@H](C)C(N)=O)[C@@H](C)O)C(C)C` [TACC3 522-536_(pBnz) -525F] (Ac-EES[Bpa]RDPAEVLGTGA-NH2), the 50% inhibitory concentration (IC50) is ≥ 500 µM.

In the case of `CC(=O)N[C@@H](CCC(=O)O)C(=O)N[C@@H](CCC(=O)O)C(=O)N[C@@H](CO)C(=O)NC(C)(Cc1ccccc1)C(=O)N[C@@H](CCCNC(=N)N)C(=O)N[C@@H](CC(=O)O)C(=O)N1CCC[C@H]1C(=O)N[C@@H](C)C(=O)N[C@@H](CCC(=O)O)C(=O)N[C@H](C(=O)N[C@@H](CC(C)C)C(=O)NCC(=O)N[C@H](C(=O)NCC(=O)N[C@@H](C)C(N)=O)[C@@H](C)O)C(C)C` (stereo partly drawn) [TACC3 522-536_(α-Me) -525F], the concentration for half-maximal inhibition (IC50) (read-out: IC50) is ≥ 500 µM.
